Active and inactive are the calls of the source. The rule behind the calls is not given here.
These molecules were tested against Toxin B (TcdB) glycohydrolase, Clostridioides difficile 630 (assay: TcdB glycohydrolase inhibitors, dose response, biochemical, cherry-pick, plate reader (AID 720512)). Details: recombinant TcdB glycohydrolase activity.

| Structure (SMILES) | AC50 |
| --- | --- |
| CCC(=O)N1CC[C@@H]2[C@H]1c1cc(-c3ccc(OC)cc3)ccc1N(C)[C@H]2CO | > 42 µM (inactive) |
| Nc1ncc(S(=O)(=O)c2ccc([N+](=O)[O-])cc2)s1 | > 39 µM (inactive) |
| CCn1c(=S)[nH]c2c(=O)n(C)c(=O)n(C)c21 | 10.8 µM |
| CN(C)CCNc1cccc2sc3ccc(O)cc3c(=O)c12 | 12.4 µM |
| CC(=O)N(C)C[C@@H]1Oc2cc(/C=C/c3ccccc3)ccc2S(=O)(=O)N([C@H](C)CO)C[C@@H]1C | > 39 µM (inactive) |
| COc1ccc(-c2ccc3c(c2)[C@H]2[C@H](CCN2C(=O)C2CC2)[C@@H](CO)N3C)cc1 | > 39 µM (inactive) |
| Cc1cc(C(=O)NNc2ccc(C)c(C)c2)no1 | 2.24 µM |

Same assay, conditions: recombinant TcdB glycohydrolase activity, at 19.5 µM (top of the series)

| Structure (SMILES) | activity change, negative = inhibition |
| --- | --- |
| CC(=O)c1ccc(Nc2ccc(-c3ccccc3F)nn2)cc1 | inactive |
| COc1ccc(Cl)cc1NC(=S)NC1CCCC1 | inactive |
| Cc1cnc(C(=O)OCC(=O)Nc2ccc(OCc3ccccc3)cc2)cn1 | inactive |
| CN(C)c1ccc(Cl)c(NC(N)=S)c1 | inactive |
| CC(/C=N/n1c(-c2ccncc2)n[nH]c1=S)=C\c1ccco1 | inactive |
| CCNC(=O)[C@H]1[C@H](CO)[C@H]2Cn3c(ccc(-c4ccccc4)c3=O)[C@H]2N1CC | inactive |
| CC1(C)CC(=O)C(C=Nc2ccc(N)cc2)=C(O)C1 | inactive |
| O=C(OCC(=O)N1CCCCC1)c1ccccc1SCC(=O)N1CCCCC1 | inactive |
| CCOC(=O)Nc1ccc(OC(=O)Oc2ccc(NC(=O)OCC)cc2)cc1 | inactive |
| CCOc1ccccc1/C=C/c1onc(C)c1S(=O)(=O)N1CCC(C(=O)N2CCCCCC2)CC1 | inactive |
| Cc1c(C(=O)c2ccccc2)c2ccccn2c1CCc1ccccn1 | inactive |
| Nc1nc(CCOc2ccc(F)cc2)cs1 | inactive |
| Cc1ccc(NS(=O)(=O)c2ccc(C)c(NC(=S)NCCN3CCOCC3)c2)c(C)c1 | inactive |
| CN1C(=O)c2cc(NC(=O)c3cccc(F)c3)ccc2OC[C@H]2O[C@H](CC(=O)NCC3CCCCC3)CC[C@@H]21 | inactive |
| S=c1nc(-c2cccc(Cl)c2)[nH][nH]1 | inactive |
| CC12CCC3C(=CCc4cc(O)ccc43)C1CC(=NO)C2O (centres undefined) | inactive |
| C/C(CCc1ccccc1)=N\NC(=O)C1C2CCCCC21 (centres undefined) | inactive |
| CC(=O)N1CCN(c2ccc(S(C)(=O)=O)cc2[N+](=O)[O-])CC1 | inactive |
| Oc1ccc(Cc2ccc(Cl)cc2)c(O)c1 | inactive |
| CCOC(=O)[C@H]1[C@H]2COc3ccc(OC)cc3[C@@H]2N2C(=O)CN(Cc3ccc(Cl)cc3)C(=O)[C@@]12C | inactive |
| Cc1ccccc1S(=O)(=O)N1CCCc2nc(C)c(C)cc21 | inactive |
| CCN(C(=O)CN1C(=O)NC2(CCC(C)CC2)C1=O)C1CCCCC1 (centres undefined) | inactive |
| CNC(C(=O)c1ccccc1)C(OC)c1cccc([N+](=O)[O-])c1 (centres undefined) | inactive |
| Cc1ccc(C(=O)Nc2ncc([N+](=O)[O-])s2)cc1 | inactive |
| CC(=O)Nc1ccc(OC(=O)Oc2ccc(NC(C)=O)cc2)cc1 | inactive |
| O=C(C[C@H]1CC[C@H]2[C@@H](COC[C@H](O)CN2C(=O)Nc2ccc(Cl)c(Cl)c2)O1)NCc1ccncc1 | inactive |

| Structure (SMILES) | activity change, negative = inhibition |
| --- | --- |
| O=S(=O)(c1ccccc1)N1CCN=C1SCc1ccccc1 | inactive |
| Cc1ccn2c(Cc3ccccc3)c(-c3ccc(F)cc3)nc2c1 | inactive |
| CC(=O)Nc1ccc(Oc2nc(-c3ccccn3)nc3ccccc23)cc1 | inactive |
| CCC(=O)Nc1ccc2c(c1)OC[C@@H](C)N(C(=O)NC(C)C)C[C@H](C)[C@H](OC)CN(C)C2=O | inactive |
| CCCC(=O)Nc1sc2c(c1C(=O)Nc1ccccn1)CCCC2 | inactive |
| CC(=O)c1ccc(NC(=O)CNCC(c2ccccc2)N(C)C)cc1 (centres undefined) | inactive |
| Cc1nc2ccccn2c1-c1ccnn1S(=O)(=O)c1ccc(F)cc1 | inactive |
| Cc1ccc(S(=O)(=O)/N=C(/Nc2cccc(O)c2)c2ccccc2)cc1 | inactive |
| CC1CCCN(C(=S)Nc2ccc(F)cc2)C1 (centres undefined) | inactive |
| O=C(Nc1ccc(O)cc1)/C(=C\c1ccncc1)NC(=O)c1ccccc1 | inactive |
| Oc1ccc2c(ccc3[nH]cnc32)c1 | inactive |
| COCC#Cc1ccc2c(c1)O[C@H](CN(C)C(=O)CC1CC1)[C@@H](C)CN([C@H](C)CO)S2(=O)=O | inactive |
| NS(=O)(=O)c1cccc(NC(=O)c2ccc(NS(=O)(=O)c3cccc([N+](=O)[O-])c3)cc2)c1 | inactive |
| CNc1n[nH]c(=S)s1 | inactive |
| OCC1CCCN(C(=S)Nc2ccc(Nc3ccccc3)cc2)C1 (centres undefined) | inactive |
| O=C(COc1ccc2ccc(=O)oc2c1)NCCN1CCOCC1 | inactive |
| COc1cc2[nH]c(=S)nc(NCCC(C)C)c2cc1OC | inactive |
| CN(C)/C=C(\C#N)C(=O)Nc1ccc(O)cc1F | inactive |
| COc1ccc(C(=O)NC(C(=O)NCc2ccccc2OC)C(C)C)cc1 (centres undefined) | inactive |
| Cc1cc(C)nc(NC(N)=NCCc2ccccc2)n1 | inactive |
| CNc1nc(C23CC4CC(CC(C4)C2)C3)cs1 | inactive |
| CC[C@H](C)[C@H]1CNC(=S)N1CC1CCN(CCCC2CCCC2)CC1 | inactive |
| C[C@@H]1CN([C@@H](C)CO)S(=O)(=O)c2ccc(C#Cc3ccncc3)cc2O[C@H]1CN(C)C(=O)C1CC1 | inactive |
| CC(=O)N(c1ccccc1C)S(=O)(=O)c1ccc(Cl)cc1 | inactive |
| COc1cc(/C=N/NC(=O)CCN2CCCCC2)ccc1O | inactive |
| C[C@H]1CN([C@@H](C)CO)C(=O)c2c(c3ccccc3n2C)-c2ccccc2CO[C@H]1CN(C)C | inactive |
